Reference: US6337338B1, “Heteroaryl-aryl ureas as IGF-1 receptor antagonists” (Telik, Inc., priority 1998, dated 2002)

Tests used:
[1] = target: T1, IGF-1R-cytoplasmic kinase domain (IGF-1R-CKD; amino acids 959-1367 of IGF-1R) (Homo sapiens, UniProt P08069); experiment: IGF-1R substrate assay (KS2 phosphorylation); type: biochemical; settings: compounds 50 μM; 50 μM ATP; KS2-biotin substrate
T1 construct: amino acids 959-1367 of IGF-1R
Protocol: Nunc Maxisorp plates were coated with 100 μL 10 μg/mL-streptavidin at […] The plates were washed in 20 mM Tris pH7.6, 150 mM NaCl, 0.05% Tween 20, 0.8 mM Na3VO4, and 0.04% Biocide between all steps of the assay. The plates were blocked in 200 μL 50 mM Hepes/150 mM NaCl/0.1% Triton-X 100 overnight at 4° C. or for 2 hr at 25-37° C.
Aliquots of the IGF-1R-cytoplasmic kinase domain (IGF-1R-CKD; amino acids 959-1367 of IGF-1R) were purified and stored at −80° C. until use. KS2 (GPWLEEEEEAYGWMDF; SEQ ID NO:1), gastrin (1-17) that is a substrate for many tyrosine kinases including the insulin receptor, was synthesized as a biotin conjugate (KS2-biotin) (Baldwin et al., Nature, 301:435-37 (1983)). The assay mixture consisted of 0.2 μg/mL IGF-1R-CKD (concentration adjusted for optimal response), 300-900 nM KS2-biotin (depending on optimal response), 2 mM […], 5 mM MgCl2 (4-10 mM […] can be substituted), compounds to be tested (50 μM) or their vehicle, and 50 μM ATP. The start of phosphorylation begins with the addition of ATP. Incubation was continued for 10-30 minutes, at which time, the reaction was stopped through the quenching the metals with 20 mM EDTA (final concentration).
The reaction was diluted 1:10 in buffer A (2 mM HEPES pH 7.6, 0.05% Triton X-100, 0.05% bovine serum albumin (BSA)) and 100 μL was captured onto washed, coated and blocked, streptavidin Nunc Maxisorp plate, overnight at 4° C. or 2 hr at 37° C. Anti-phosphotyrosine antibody (12.5 ng/well) conjugated to horseradish peroxidase (RC20:HRPO by Transduction Laboratories ) was diluted into 0.5X Buffer B (25 mM Hepes pH7.6, 75 mM NaCl, 0.025% Tween 20, 2 mM Na3VO4+1% BSA) and incubated for 1.5 to 2 hr at 25° C. The phosphorylated substrate was measured by developing the plate with 100 μL 3′, 3′, 5,5′ tetramethylbenzidine (TMB), and quantified using a plate reader.

MCF-7 cells = experiment: Cell growth inhibition study by protein assay, MCF-7; type: cell-based; settings: 1 nM IGF-1, 48 h, FIG. 1b
Protocol: 100,000 cells (MCF-7) were plated into 24 well dishes, and grown in complete Dulbecco's modified Eagle's medium (DMEM) supplemented with 10% fetal calf serum (FCS) for 24 h. Cells were washed twice in serum-free DMEM, then 0.5 ml DMEM supplemented with 0^5% FCS […] was added with or without a heteroaryl-aryl compound, compound 5, and in the presence or absence of 1 nM hormone (IGF-1 or insulin, respectively). After 48 h at 37° C., cells were washed twice with phosphate buffered saline (PBS) then solubilized in 0.03% sodium dodecyl sulfate (SDS). Protein was determined using the BCA Protein Assay reagent from Pierce Chemical with BSA serving as a standard.

MCF-10 cells = experiment: Cell growth inhibition study by protein assay, MCF-10; type: cell-based; settings: 1 nM IGF-I, FIG. 1a
Protocol: MFC-10 cells were plated as above in DMEM/Ham's F12 medium (DMEM/F12) supplemented with 5% horse serum, 8 ng/ml epidermal growth factor (EGF), 0.5 μg/ml hydrocortisone, 0.1 μg/mL cholera toxin. After 24 hr, cells were washed twice in serum free DMEM/F12, then 0.5 ml DMEM/12 with 0.5% horse serum added with or without test compound, and in the […] of 1 nM IGF-I.

MCF-7 or MCF-10 cells = experiment: Cell proliferation assay (CellTiter 96, MTS); type: cell-based; settings: 1 nM IGF-1, 48 h, FIG. 2
Protocol: 5000 cells (MCF-7 or MCF-10) were plated into 96 well plates and grown for 24 h as in Example 4, above. Cells were washed in serum free DMEM, then 100 μl media and 1 nM IGF-1 were added to wells in the presence of or absence of compound 5 (see Example 2) and hormone. After 48 h, viability was determined by CellTiter 96™ (Promega). This kit is a chromogenic bioassay procedure for the measurement of cell proliferation. Briefly, 20 μl (3-[4,5,dimethylthiazol-2-yl]-5-[3-carboxymethoxyphenyl]-2-[4-sulfophenyl]-2H-tetrazolium, inner salt (MTS) was added to each well and incubation was continued for 3-4 h. Viable cells reduced the MTS to formazan, which was then measured at 492 nm using an ELISA plate reader. Cell proliferation was calculated based on the increase in the number of viable cells.

T1 sequence (P08069 959-1367): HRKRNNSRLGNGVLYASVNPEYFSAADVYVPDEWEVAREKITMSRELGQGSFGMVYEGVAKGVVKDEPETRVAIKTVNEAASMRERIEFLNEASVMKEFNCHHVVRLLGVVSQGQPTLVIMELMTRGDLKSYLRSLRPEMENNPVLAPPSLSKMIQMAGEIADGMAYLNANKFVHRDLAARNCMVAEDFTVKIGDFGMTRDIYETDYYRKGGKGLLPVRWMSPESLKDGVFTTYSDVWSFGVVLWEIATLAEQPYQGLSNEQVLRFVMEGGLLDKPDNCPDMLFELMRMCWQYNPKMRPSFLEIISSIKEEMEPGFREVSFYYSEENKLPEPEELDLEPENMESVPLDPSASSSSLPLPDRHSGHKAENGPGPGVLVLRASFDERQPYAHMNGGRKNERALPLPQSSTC

In the case of COc1c(Cl)cccc1NC(=O)Nc1cc(C)nc2ccccc12 [Compound 5, N-(2-methoxy-3-chlorophenyl)-N′-(2-methyl-4-quinolinyl) urea], the inhibition at 50 µM [1] is reported as 21%, the “IGF-1 stimulated cell growth (protein assay)” value (MCF-7 cells) is reported as “inhibit IGF-1 stimulated cell growth” and the “IGF-1 stimulated cell growth (protein assay)” value (MCF-10 cells) is reported as “inhibit IGF-1 stimulated cell growth”. For the same compound, the “IGF-1R stimulated cell proliferation” value (MCF-7 or MCF-10 cells) was “decrease in IGF-1R stimulated cell proliferation”.

Work on COc1ccc(Cl)cc1NC(=O)Nc1cc(C)nc2ccccc12 [Compound 7, N-(2-methoxy-5-chlorophenyl)-N′-(2-methyl-4-quinolinyl) urea] yielded an inhibition at 50 µM [1] of 23%.

Cc1ccc(NC(=O)Nc2cnc3ccccc3c2)cc1Cl [Compound 8, N-(3-chloro-4-methylphenyl)-N′-(3-quinolinyl) urea] gave an inhibition at 50 µM [1] of 65%.

CCc1ccc(NC(=O)Nc2cccc3cccnc23)cc1 [Compound 9, N-(4-ethylphenyl)-N′-(8-quinolinyl) urea] gave an inhibition at 50 µM [1] of 33%.

O=C(Nc1cccc(Cl)c1)Nc1cnc2ccccc2c1 [Compound 10, N-(3-chlorophenyl)-N′-(3-quinolinyl) urea] was tested, and the inhibition at 50 µM [1] was 26%.

Work on COc1c(Cl)cccc1NC(=O)Nc1nccs1 [Compound 11, N-(2-methoxy-3-chlorophenyl)-N′-(1,3-thiazol-2-yl) urea] yielded an inhibition at 50 µM [1] of 21%.

Cc1ccc(NC(=O)Nc2nccs2)cc1Cl [Compound 12, N-(3-chloro-4-methylphenyl)-N′-(1,3-thiazol-2-yl) urea] gave an inhibition at 50 µM [1] of 21%.

Work on COc1ccccc1NC(=O)Nc1nccs1 [Compound 13, N-(2-methoxyphenyl)-N′-(1,3-thiazol-2-yl) urea] yielded an inhibition at 50 µM [1] of 20%.

In the case of O=C(Nc1cc(Cl)cc(Cl)c1)Nc1nccs1 [Compound 14, N-(3,5-dichlorophenyl)-N′-(1,3-thiazol-2-yl) urea], the inhibition at 50 µM [1] is reported as 17%.
